Results as given in patent publication US20040034879A1, “Mammalian sex selection using genetic modification” (priority 2000, published 2004).

How the values were obtained:
[1] = tested on: sperm comprising an X chromosome; experiment: Sex of offspring sired by male mice carrying TP1-HSV tk (transgene (a)) on the X chromosome; assay type: in vivo, mouse; settings: after two weeks of gancyclovir administration, crossed with non-transgenic female mice
Description: The mice transformed with transgene (a), as described above, express HSV tk on the X chromosome of maturing sperm. Gancyclovir. from about 5 to about 15 mg/kg body weight, is administered to transgenic mice expressing HSV tk via injection. Upon gancyclovir administration, HSV tk forms toxic metabolites that leads to the ablation of sperm comprising an X chromosome. The TP1 regulatory region is activated post-meiotically, so that Y bearing sperm are not effected. Thus, the transformed male mouse comprises exclusively Y bearing sperm and produces male offspring, upon gancyclovir administration. An exemplary gancyclovir administration regime comprises two weeks of administration prior to mating, thereby destroying X chromosome-bearing sperm prior to mating. Male mice carrying transgene HSV tk (transgene (a)) are crossed non-transgenic female mice. Without gancyclovir administration, half of the offspring are male and half are female. The female offspring carry the transgene on the X chromosome. After two weeks of gancyclovir administration, male mice carrying transgene (a) are crossed with non-transgenic female mice. The resulting offspring are all male.

Human 293 cells = experiment: Luciferase activity after transient co-transfection with pCMV-Luc; assay type: cell-based; settings: 48 hours after co-transfection with pBS-CMV-tTA-Barnase-Barstar and pCMV-Luc; tetracycline pretreatment, 2 μg/ml
Description: Cell culture and transient transfection: Human 293 cells from embryonal kidney were maintained at 37° C., 5% CO2 in α-MEM supplemented with 10% fetal bovine serum. Transfections by calcium phosphate co-precipitation were performed according to standard protocols. Transfections were carried out in 35 mm dishes, using 1 μg of plasmid together with 0.5 μg of pCMV-Luc or pCMV-GFP. Control trasfections contained 1 μg of empty pTRE plasmid DNA together with 0.5 μg of either pCMV-Luc or pCMV-GFP. Tetracycline was used at a concentration of 2 μg/ml, and added shortly after cells were transfected, unless otherwise indicated. All data were from three replicate plates and the experiments were repeated twice.
Luciferase activity: Twenty-four hours following transfection, media was removed, cells were washed with PBS and luciferase assays were performed as described in Yin et al (1996) with Promega luciferase assay system, using 10 μl lysate and 50 μl luciferase substrate. Activity was measured with a Turner TD-20e luminometer. Protein concentrations in different lysates were determined by Bradford assays (Bio-Rad), and luciferase activity per μg protein determined.

Compound | sex of the resulting offspring [1] | luciferase activity in cells treated with tetracycline versus those not treated (Human 293 cells) [fold]
Nc1nc(O)c2ncn(COC(CO)CO)c2n1 [gancyclovir] | all male | –
CN(C)[C@@H]1C(O)=C(C(N)=O)C(=O)[C@@]2(O)C(O)=C3C(=O)c4c(O)cccc4[C@@](C)(O)[C@H]3C[C@@H]12 [tetracycline] | – | ~6
